In patent US12329738B2, “Urolithin A and a composition containing same for external use in inflammations of various etiologies” (WARSZAWSKI UNIWERSYTET MEDYCZNY, priority 2018, dated 2025):

Columns and labels:
[1] = tested on: Wistar rats (DNCB-induced atopic dermatitis); assay: Ear thickness (edema) in DNCB-induced atopic dermatitis rat model; assay type: in vivo
Protocol: It is similar to the indications for use of hydrocortisone, which was used as a positive control in the study. Urolitin A was obtained by synthesis according to Bialonska et al. (Bialonska et al., 2009) or purchased from Sigma-Aldrich. The ointment containing urolithin A was prepared by emulsifying the weighed substance into a solid vehicle (white petrolatum) using an unguator. Wistar rats aged 5-6 weeks (at the start of the experiment) kept under standard conditions with free access to feed and water were used for the tests. The animals were divided into 5 groups, 8 individuals in each group. To prepare 2,4-dinitrochlorobenzene (DNCB) composition inducing inflammation, DNCB was dissolved in 70% ethanol to a final concentration of 1.5% (w/v). Therapeutic composition was an ointment based on white petrolatum with 0.2% or 1.0% urolithin A added. The control ointment was white petrolatum without addition of urolithin A. The induction of chronic atopic dermatitis involved local 9-fold infiltration with 60 μl 1.5% 2,4-dinitrochlorobenzene (DNCB) on each (external and internal) surface of the right ear over 3 weeks (3 times a week). Negative control was the right ear of rats without induction inflammation. Treatment of atopic dermatitis with 0.2% or 1.0% urolithin composition and white petrolatum (control) or 1.0% hydrocortisone composition (positive control) was started eight days after sensitization—one day before the fourth application of DNCB. Ointments with appropriate for given group drug added were applied in a total volume of about 20 μl to each ear surface one day before and 6 hours after each DNCB application (for a period of 3 weeks). The negative control group consisted of rats without induced inflammation and treated with white petrolatum in a regimen analogous to the composition of urolithin A or hydrocortisone. Ear thickness was assessed using an electronic mini caliper the day before inflammation was induced (day 0) and then on days 4 and 8 prior to treatment and on days 4, 8, 12, 16, […] of therapy with urolithin A composition (on days 12, 16, 20, 24, 28 and 32 after inflammation inducing, respectively). The experimental results obtained were analyzed using the Statistica 7.1 program (StatSoft, Inc., Tulsa, OK, USA) and presented as mean values±SE. Statistical significance was set at P≤0.05. The results with established normal distribution in the D'Agostin and Pearson test were prepared using two- or three-factor analysis of variance (ANOVA). Parametric post-hoc analysis for individual time points was performed using the Bonferroni test.

ERK1/2 = ERK1/2 phosphorylation in THP-1 derived macrophages (Western blotting); assay type: cell-based, human; details: 40 μM; LPS 10 ng/mL, 35 min; FIG. 15
Protocol: Monocytes of the THP-1 line were cultured in RPMI 1640 medium supplemented with 10% FBS and 2 mM glutamine. For transformation of monocytes into macrophages, the cells were treated with 12.5 ng/mL PMA (phorbol 12-myristate 13-acetate) for 48 hours, then washed and incubated for 24 hours in a culture medium without PMA. After this time, urolithin A, urolithin B, iso-urolithin A and the corresponding glucuronides (GUA, GUB and GiUA) were added to the cells at a concentration of 40 μM. After 1 hour of incubation with the compounds, the cells were stimulated with LPS from Escherichia coli (10 ng/mL). To assess the level of TNF-alpha production, the cells were incubated for 6 hours, to assess the expression of mRNA for TNF-alpha, the cells were incubated for 24 hours, to assess the effect on ERK1/2 phosphorylation, the cells were incubated for 35 minutes. […] The obtained results of experiments on in vitro models were analyzed using the Statistica 13 program (StatSoft, Inc., Tulsa, OK, USA) and presented as mean values±SEM. Statistical significance was set at P≤0.05. The results with established normal distribution in the D'Agostin and Pearson test were prepared using analysis of variance (ANOVA). Parametric post-hoc analysis was performed using Dunnett's test.

TNF-alpha = TNF-alpha production by macrophages from human peripheral blood monocytes (ELISA); assay type: cell-based; details: 40 μM; LPS 100 ng/mL, 24 h; FIG. 16
Protocol: Monocytes were isolated from peripheral human blood by a standard method using dextran sedimentation and Ficoll Hypaque gradient centrifugation. After isolation, monocytes were suspended in RPMI 1640 medium supplemented with L-glutamine, HEPES, streptomycin, amphotericin and gentamicin, and 20% autologous serum. Cell culture was carried out under these conditions for 7 days. […] After 24h, TNF-alpha level in the medium was determined using the immunochemical ELISA method (BD biosciences). The obtained results of experiments on in vitro models were analyzed using the Statistica 13 program (StatSoft, Inc., Tulsa, OK, USA) and presented as mean values±SEM. Statistical significance was set at P≤0.05. The results with established normal distribution in the D'Agostin and Pearson test were prepared using analysis of variance (ANOVA). Parametric post-hoc analysis was performed using Dunnett's test.

tyrosinase = target: T1, tyrosinase (Mus musculus, UniProt P11344); details: B16 melanoma cells; cited from earlier work
T1 sequence (P11344 19-533): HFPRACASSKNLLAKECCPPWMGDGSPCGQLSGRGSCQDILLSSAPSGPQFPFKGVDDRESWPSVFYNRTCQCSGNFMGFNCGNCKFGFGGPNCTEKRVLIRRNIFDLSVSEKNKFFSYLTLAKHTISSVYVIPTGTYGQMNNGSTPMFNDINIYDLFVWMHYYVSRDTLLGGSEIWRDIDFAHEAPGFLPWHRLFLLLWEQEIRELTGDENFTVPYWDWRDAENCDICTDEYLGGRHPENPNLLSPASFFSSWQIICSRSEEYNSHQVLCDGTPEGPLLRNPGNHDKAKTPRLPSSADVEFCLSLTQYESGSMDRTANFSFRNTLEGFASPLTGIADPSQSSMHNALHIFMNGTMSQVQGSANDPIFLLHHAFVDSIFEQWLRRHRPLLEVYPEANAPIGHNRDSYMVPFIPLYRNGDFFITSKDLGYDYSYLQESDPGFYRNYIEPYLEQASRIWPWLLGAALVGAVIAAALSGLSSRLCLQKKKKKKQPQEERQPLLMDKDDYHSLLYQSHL

[2] = tested on: carrageenan-induced paw edema in mice; details: oral administration one hour after induction of edema, next 24 hours; cited from earlier work

In the case of `O=c1oc2cc(O)ccc2c2ccc(O)cc12` [urolithin A], the “Ear edema, comparison of urolithin doses with each other” value ([1]; 0.2% vs 1%, p<0.05) is reported as “more effective at a concentration of 1%”, the “Time profile of anti-edema effect, urolithin A vs. hydrocortisone” value ([1]; later treatment period (from day 12 to 28 of treatment), dose 0.2 and 1%, p<0.01) is reported as “more effective in the later treatment period” and the “Ear edema (ear thickness) after local therapy” value ([1]; topical ointment in white petrolatum, urolithin A 0.2 and 1.0%, hydrocortisone 1%, urolithin A p<0.001, hydrocortisone p<0.01) is reported as “reduced”. For the same molecule, the “Anti-inflammatory (ear edema) effect compared to hydrocortisone 1%” value ([1]; urolithin A 0.2% ointment) was “absence of significantly greater efficiency”, the “Anti-inflammatory (ear edema) effect compared to hydrocortisone 1%” value ([1]; urolithin A 1% ointment, p<0.05) was “significantly greater anti-inflammatory effect compared to hydrocortisone” and the “Ear edema reduction, urolithin vs. hydrocortisone (2-factor ANOVA)” value ([1]; urolithin A (both doses) vs. 1% hydrocortisone, p<0.05) was “stronger”. The “ERK1/2 kinase phosphorylation in THP-1 derived macrophages” value (ERK1/2) was “stimulation of ERK1/2 kinase phosphorylation”, the “Inhibition of TNF-alpha production by macrophages from human peripheral blood monocytes” value (TNF-alpha) was “most active compound” and the “Tyrosinase activity (depigmentation)” value (tyrosinase) was “suppressing tyrosinase activity”. The “Carrageenan-induced paw edema size” value [2] was “significantly reduced its size”.
